Paper PMC4785407, “Reduction Impairs the Antibacterial Activity but Benefits the LPS Neutralization Ability of Human Enteric Defensin 5” (Scientific Reports, 2016)
“Also recorded” adds a separate entry of the source. Read-outs that look alike come from different tables or passages of the source. Bridge positions count the residues as written; N and C are the ends. Peptide text beside a SMILES is read from it.

How the values were obtained:
HIV gp-120 = conditions: cited from earlier work
[1] = system: E. coli ML35 (ATCC 43827); experiment: virtual colony count assay, E. coli ML35; type: cell-based; conditions: for LD50 (Lethal Dose that kills 50% of bacteria) / LD90 (Lethal Dose that kills 90% of bacteria): ATCC 43827 E. coli ML35, 1 × 10^6 CFU/mL, 10 mM sodium phosphate buffer pH 7.4, 1% TSB, 37 °C, 1 h, duplicate, repeated three times
Procedure: Figure 3 Reduction attenuates the antibacterial activity of HD5OX against Gram-negative bacteria. […] Peptides were prepared in sterile water, with the final concentrations of 0.78, 1.56, 3.13, 6.25, 12.5, and 25 μg/mL. […] Zero survival points are not plotted.

[2] = system: anthrax lethal factor (LF); conditions: cited from earlier work
CD4^+T cells = conditions: cited from earlier work
Text: (§1) Human defensins are also noted for their immunoregulatory properties. […] Additionally, some defensins are able to suppress the pro-inflammatory effect of bacterial lipopolysaccharide (LPS). For example, H ...

[3] = system: intestinal epithelial cells; conditions: cited from earlier work
Text: as §1

[4] = cited from earlier work
Text: Upon examining the biochemical properties of synthetic IDRs, the structural flexibility was noted. For example, the bovine bactenecin linear derivative 1018 adopts various folds in different media, relative to the natural peptide, to adapt to different functions. […] It can be exp ...

human thioredoxin (Trx) = experiment: HD5OX reduction by thioredoxin in vitro, LC-MS; type: biochemical; conditions: 30 μM HD5OX, 15 μM human Trx, 500 nM rat liver TrxR, 1 mM NADPH, 2 mM EDTA, pH 7.0, room temperature, 1 h
Procedure: (§2) A mixture of 30 μM HD5OX, 15 μM human thioredoxin (Trx, Prospec PRO569), 500 nM rat liver thioredoxin reductase (TrxR, Sigma T9698), 1 mM NADPH (Sigma N5130), and 2 mM EDTA was incubated in 100 mM sodium phosphate buffer (pH 7.0) at room temperature for 1 h. The reaction was quenched by adding 6% trifluoroacetic acid (TFA). The solution was then centrifuged (10,000 g × 10 min) at 4 °C and analyzed with an Agilent 6410 liquid chromatography-mass spectrometry (LC-MS) instrument using a linear gradient of 5–45% acetonitrile that contained 0.1% TFA.

[5] = Biolayer interferometry (BLI), binding to lipid A; conditions: for Kd / Koff (dissociation rate constant) / Kon (association rate constant): BLI, 1:1 fit
Procedure: The recruitment of peptides to lipid A (Sigma L5399) was determined using Forte Bio’s “Octet Red 96” BLI (Pall Life Sciences, US). The amine-reactive second-generation (AR2G) biosensor was activated using 20 mM 1-ethyl-3-[3-dimethylaminopropy] carbodiimide hydrochloride (EDC, Sigma E1769) and 10 mM sulfo-N-hydroxysulfosuccinimide (s-NHS, Sigma 56485). Lipid A was immobilized on biosensors at the concentration of 20 μg/mL until the binding curves reached the plateau. Ethanolamine (1 M, pH 8.5) was used to quench the immobilization. Peptides were prepared in the running buffer (5 mM sodium phosphate buffer, pH 7.4), with concentrations of 200, 400, 600, 800, 1000, and 1200 nM, respectively. Association and disassociation, 5 min for each, were carried out at a shaking speed of 600 rpm. Biosensors were regenerated by 0.1 M Glycine-HCl buffer (pH 2.0). […] The binding thicknesses were processed using Fortebio Data Analysis 7.0 software, in which the methods for y-axis alignment, inter-step correction, and Savitzky-Golay filtering were specified. The equilibrium dissociation constant (KD), calculated as the ratio of the dissociation rate constant (Koff) to the association rate constant (Kon), was generated by a 1:1 fitting model. This experiment was repeated three times.
^a The binding kinetics between peptides and bacterial lipid A were determined with a biolayer interferometry (BLI). Lipid A was immobilized on AR2G biosensors at the concentration of 20 μg/mL until the binding curves reached the plateau. Peptides were prepared in the running buffer (5 mM sodium phosphate buffer, pH 7.4), with concentrations of 200, 400, 600, 800, 1000, and 1200 nM, respectively. Association and disassociation, 5 min for each, were carried out at a shaking speed of 600 rpm. The bindings were processed using Fortebio Data Analysis 7.0 software, which specifies the methods for y-axis alignment, inter-step correction, reference subtraction, and Savitzky-Golay filtering. The experiment was repeated three times.
^b Kon, the association rate constant; Koff, the dissociation rate constant; KD, the equilibrium dissociation constant; R^2, the fitting correlation coefficient. These parameters were generated by a 1:1 fitting model. KD is calculated as the ratio of Koff to Kon. […]

[6] = system: E. coli ML35 inner membrane; experiment: Inner membrane permeabilization (ONPG); type: cell-based; conditions: 6.25 and 12.5 μg/mL, 37 °C, 2 h, absorbance 405 nm, vs HD5OX
Procedure: The production of 2-nitrophenol (ONP), a marker of inner membrane penetration, was determined by measuring the absorbance at 405 nm.

[7] = Hydrophobicity of the Trx reduction product (LC-MS); type: physicochemical; conditions: linear gradient of 5–45% acetonitrile with 0.1% TFA, vs HD5OX
Procedure: as §2

[8] = system: E. coli ML35 (ATCC 43827) outer membrane; experiment: Outer membrane penetration (NPN uptake assay); type: cell-based; conditions: 6.25 μg/mL, 10 mM sodium phosphate buffer pH 7.4, 37 °C, 1 h; vs HD5OX
Procedure: Then, an aliquot of 10 μL of NPN (Sigma 104043) was added, resulting in a final concentration of 10 μM. After excitation at 350 nm, the fluorescent intensity was measured in the range from 380-450 nm at intervals of 2 nm using a Tecan Infinite […] microplate reader.

[9] = system: E. coli ML35 (ATCC 43827) cells; experiment: Zeta potential determination; type: cell-based
Procedure: Samples were equilibrated at 25 °C for 2 min. Zeta potential was determined using the Zetasizer Nano ZS (Malvern Instruments, UK). A total of 6 measurements of 100 runs were carried out for each sample.

[10] = system: Enterococcus faecalis (ATCC 29212); experiment: virtual colony count assay, E. faecalis; conditions: HD5OX vs HD5RED
[11] = AR2G biosensor, 5 mM sodium phosphate buffer pH 7.4, 200-1200 nM, mean ± SD from three independent assays, read-out: KD (equilibrium dissociation constant) binding to lipid A
[12] = lipid A, repeat 1th, read-out: KD
[13] = lipid A, repeat 2th, read-out: KD
[14] = lipid A, repeat 3th, read-out: KD

Structure (SMILES) | LD50 (Lethal Dose that kills 50% of bacteria) [1] | LD90 (Lethal Dose that kills 90% of bacteria) [1] | Kd [5, 11] | Koff (dissociation rate constant) ([5]; lipid A, repeat 1th) | Kon (association rate constant) ([5]; lipid A, repeat 1th) | Kd [5, 12] | Koff (dissociation rate constant) ([5]; lipid A, repeat 2th) | Kon (association rate constant) ([5]; lipid A, repeat 2th) | Kd [5, 13] | Koff (dissociation rate constant) ([5]; lipid A, repeat 3th) | Kon (association rate constant) ([5]; lipid A, repeat 3th) | Kd [5, 14] | also measured
CC[C@H](C)[C@@H]1NC(=O)[C@H](CCC(=O)O)NC(=O)[C@@H]2CSSC[C@@H]3NC(=O)[C@H](Cc4ccc(O)cc4)NC(=O)[C@@H](NC(=O)[C@@H](NC(=O)[C@H](C)N)[C@@H](C)O)CSSC[C@@H](C(=O)N[C@@H](CCCNC(=N)N)C(=O)O)NC(=O)[C@H](CSSC[C@H](NC(=O)[C@H](CCCNC(=N)N)NC(=O)CNC(=O)[C@H]([C@@H](C)O)NC(=O)[C@H](CCCNC(=N)N)NC3=O)C(=O)N[C@@H](C)C(=O)N[C@@H]([C@@H](C)O)C(=O)N[C@@H](CCCNC(=N)N)C(=O)N[C@@H](CCC(=O)O)C(=O)N[C@@H](CO)C(=O)N[C@@H](CC(C)C)C(=O)N[C@@H](CO)C(=O)NCC(=O)N[C@@H](C(C)C)C(=O)N2)NC(=O)[C@H](CC(C)C)NC(=O)[C@H](CCCNC(=N)N)NC(=O)[C@H](Cc2ccc(O)cc2)NC(=O)[C@H](CC(C)C)NC(=O)[C@H](CCCNC(=N)N)NC(=O)CNC(=O)[C@H](CO)NC1=O [HD5OX, Oxidized human defensin 5] (H-ATCYCRTGRCATRESLSGVCEISGRLYRLCCR-OH; disulfide 3-31, 5-20, 10-30; N-terminus and C-terminus assumed) | 4.7 ± 0.8 µg/mL | 11.6 ± 1.7 µg/mL | 75 ± 24 nM | 0.000324 s⁻¹ | 6320 M⁻¹ s⁻¹ | 51.3 nM | 0.000536 s⁻¹ | 5410 M⁻¹ s⁻¹ | 99.1 nM | 0.000509 s⁻¹ | 6830 M⁻¹ s⁻¹ | 74.5 nM | binding and inhibition of HIV gp-120 (HIV gp-120): efficiently bind and inhibit; antibacterial action against E. coli ML35, relative ([1]; virtual colony count, 0.78-25 μg/mL, HD5OX vs HD5RED): more potent action against these bacteria than HD5RED; binding and inhibition of anthrax lethal factor [2]: efficiently bind and inhibit anthrax lethal factor; IL-2 production (CD4^+T cells): can induce the production of IL-8 and IL-2; IL-8 production [3]: can induce the production of IL-8; LPS binding [4]: can bind LPS; reduction by Trx (human thioredoxin (Trx)): Trx catalyzed the reduction of HD5OX in vitro
CC[C@H](C)[C@H](NC(=O)[C@H](CCC(=O)O)NC(=O)[C@H](CS)NC(=O)[C@@H](NC(=O)CNC(=O)[C@H](CO)NC(=O)[C@H](CC(C)C)NC(=O)[C@H](CO)NC(=O)[C@H](CCC(=O)O)NC(=O)[C@H](CCCNC(=N)N)NC(=O)[C@@H](NC(=O)[C@H](C)NC(=O)[C@H](CS)NC(=O)[C@H](CCCNC(=N)N)NC(=O)CNC(=O)[C@@H](NC(=O)[C@H](CCCNC(=N)N)NC(=O)[C@H](CS)NC(=O)[C@H](Cc1ccc(O)cc1)NC(=O)[C@H](CS)NC(=O)[C@@H](NC(=O)[C@H](C)N)[C@@H](C)O)[C@@H](C)O)[C@@H](C)O)C(C)C)C(=O)N[C@@H](CO)C(=O)NCC(=O)N[C@@H](CCCNC(=N)N)C(=O)N[C@@H](CC(C)C)C(=O)N[C@@H](Cc1ccc(O)cc1)C(=O)N[C@@H](CCCNC(=N)N)C(=O)N[C@@H](CC(C)C)C(=O)N[C@@H](CS)C(=O)N[C@@H](CS)C(=O)N[C@@H](CCCNC(=N)N)C(=O)O [HD5RED] (H-ATCYCRTGRCATRESLSGVCEISGRLYRLCCR-OH) | 9.9 ± 0.6 µg/mL | 22.5 ± 2.3 µg/mL | 140 ± 30 nM | 0.000389 s⁻¹ | 2140 M⁻¹ s⁻¹ | 182 nM | 0.000337 s⁻¹ | 2570 M⁻¹ s⁻¹ | 131 nM | 0.000264 s⁻¹ | 2250 M⁻¹ s⁻¹ | 117 nM | inner membrane disintegration [6]: attenuated potency for disintegrating the bacterial inner membrane; hydrophobicity of product [7]: increased hydrophobicity; fold of concentration needed to inactivate 90% relative to HD5OX ([1]; E. coli ML35 ATCC 43827, higher than HD5OX): 1.9 -fold; outer membrane destruction (NPN fluorescence intensity) [8]: destroys the outer membrane less effectively than HD5OX; zeta potential of cells, compared with HD5OX ([9]; 12.5 and 50 μg/mL, peptide vs HD5OX): significantly less than that of cells treated with HD5OX; also recorded: less efficient in altering the bacterial surface charge than HD5OX; zeta potential of cells ([9]; E. coli ML35 cells, 10 mM sodium phosphate buffer pH 7.4, 1% TSB, 25 °C): approximately −37 mV; efficiency against Gram-positive E. faecalis, relative [10]: less than HD5OX; recruitment to lipid A ([5]; 1000 nM, 5 mM sodium phosphate buffer, HD5RED vs HD5OX): fewer HD5RED than HD5OX molecules were recruited to the lipid A; fold KD relative to HD5OX ([5]; lipid A, higher than HD5OX): 1.9 -fold
